Entries after “also recorded” stand apart in the source; their conditions may differ. Read-outs that look alike come from different tables or passages of the source.
What was measured:
[1] = test system: p3TPLux TGFβ-responsive reporter in 6F mink lung cells; experiment: luciferase assay, stably transfected p3TPLux; assay type: cell-based; conditions: for synergy with TGFβ: 400 pM TGFβ1; for reporter gene expression: stably transfected reporter
Protocol: FIG. 19 graphs the dose-response of transcriptional activation of compounds 1a and 2 in the presence (*) or absence (•) of 400 pM TGFβ1. 20,000 6F mink lung cells ( ) were seeded in 384 well plates, allowed to attach for 16 hours in 10% mink medium, and were treated with the indicated concentrations of 1a or 2.
We screened more than 16,000 chemical compounds to identify those that specifically activated expression of a reporter gene (luciferase) under the control of TGFβ-responsive elements in stably transfected mammalian cells (mink lung epithelial cells). […] Given the structural similarity of compounds 1a-c, we expected that all three were operating through a common mechanism. We therefore continued testing on only one, compound 1a, as representative of the group.

[2] = test system: control reporter responsive to NFκB; conditions: transiently transfected
Protocol: LUCIFERASE ASSAYS: Our transient transfection luciferase assay was described previously by us (Stockwell et al., Chem Biol 5:385, 1998). Briefly, 100,000 Mv1Lu mink lung epithelial cells were transiently transfected in 12-well dishes with 400 ng p3TPLux or pNFkB-Lux, with or without 50 ng pFC-MEKK, in 300 μL minimal essential medium with non-essential amino acids. The DEAE-dextran/chloroquine/DMSO methods was used for transfection (Stockwell et al., Chem Biol 6:71, 1999). After cell lysis in 120 μL lysis buffer, a Beckman LS 6500 liquid scintillation counter was used in single photon mode to quantitate luminescence. For detection of luciferase activity in 6F cells (including the primary screen), 20,000 6F cells were seeded in 50 μL of 10% mink medium in each well of a white 384-well plate (Nalge Nune International; Naperville, Ill.; cat#164610) using a Multidrop 384 liquid dispenser (Lab Systems; Helsinki, Finland). […] After incubating the cells for five minutes on ice, 20 μL of ATP/luciferin solution was added (25 mM glycylglycine pH 7.8, 15 mM MgSO4, 4 mM EGTA, 6.25 mM K2HPO4 (Sigma; cat#P5504) pH 7.8, 5 mM DTT, 75 μM D-luciferin (Sigma, cat# L-9504, 2 mM ATP (Sigma; cat#A-7699)). Light output was immediately measured with an Analyst 384-well platereader (LJL), with 0.5 second counting time per well.

[3] = test system: transiently transfected TGFβ-responsive reporter; experiment: transient transfection luciferase assay, p3TPLux; assay type: cell-based, mink
Protocol: LUCIFERASE ASSAYS: Our transient transfection luciferase assay was described previously by us (Stockwell et al., Chem Biol 5:385, 1998). Briefly, 100,000 Mv1Lu mink lung epithelial cells were transiently transfected in 12-well dishes with 400 ng p3TPLux or pNFkB-Lux, with or without 50 ng pFC-MEKK, in 300 μL minimal essential medium with non-essential amino acids. The DEAE-dextran/chloroquine/DMSO methods was used for transfection (Stockwell et al., Chem Biol 6:71, 1999). After cell lysis in 120 μL lysis buffer, a Beckman LS 6500 liquid scintillation counter was used in single photon mode to quantitate luminescence. For detection of luciferase activity in 6F cells (including the primary screen), 20,000 6F cells were seeded in 50 μL of 10% mink medium in each well of a white 384-well plate (Nalge Nune International; Naperville, Ill.; cat#164610) using a Multidrop 384 liquid dispenser (Lab Systems; Helsinki, Finland). After 16 hours, medium was removed using a 24 channel wand (V&P Scientific, Inc.; San Diego, Calif.; cat#VP 186L), the cells were washed with 75 μL of 0.2% mink medium (containing 0.2% FBS), and reagents were added in 40 μL of 0.2% medium. For the primary screen, reagents were added by pin transfer using 384 polypropylene pin arrays (Matrix Technologies; Hudson, N.H.). After 24 hours, the cells were cooled on ice and washed twice with 75 μL Hanks Balanced Salt Solution (HBSS; GibcoBRL; cat#24020-117). Then 20 μL lysis buffer (25 mM glycylglycine (Sigma; cat#E-0396), 1% Triton X-100 (Sigma; cat#T-9284), 1 mM dithiothreitol (DTT; Sigma; cat#D-5545), 1 mM phenylmethylsulfonyl fluoride (PMSF; Sigma; cat#P-7626)) was added to each well with a Multidrop. After incubating the cells for five minutes on ice, 20 μL of ATP/luciferin solution was added (25 mM glycylglycine pH 7.8, 15 mM MgSO4, 4 mM EGTA, 6.25 mM K2HPO4 (Sigma; cat#P5504) pH 7.8, 5 mM DTT, 75 μM D-luciferin (Sigma, cat# L-9504, 2 mM ATP (Sigma; cat#A-7699)). Light output was immediately measured with an Analyst 384-well platereader (LJL), with 0.5 second counting time per well.

[4] = test system: mink lung epithelial cells; experiment: BrdU cytoblot assay for S-phase progression; assay type: cell-based
Source text: BRDU CYTOBLOT ASSAY: The BrdU cytoblot assay for S-phase progression was described previously by Stockwell et al. (Chem. Biol. 6:71, 1999; see also, U.S. Patent Application Ser. No. 60/094,305, incorporated herein by reference).
Compounds that mimic TGFβ activity would be expected to be capable of inducing cell cycle arrest or apoptosis, and in particular to block DNA replication, in responding cells. We therefore used an S-phase progression cytoblot assay to test whether our compounds could inhibit 5-bromodeoxyuridine (BrdU) incorporation into mink epithelial cells. […] Both compounds were therefore classified as true TGFβ mimics.

[5] = test system: S. cerevisiae strain BY4741
Protocol: TRANSCRIPTIONAL PROFILING: We performed transcriptional profiling on yeast cells according to known techniques. […] We therefore set thresholds of 0.5 fold and 2.0 fold for transcriptional repression and transcriptional activation, respectively, in our experimental comparisons of untreated cells and cells treated with test compounds.
Briefly, S. cerevisiae strain BY4741 (haploid) was streaked on a YPD plate, grown for 3 days at 30° C., and used to inoculate a 50 mL overnight culture of YPD. This culture was diluted into pre-warmed YPD such that A600=0.04 and allowed to grow until A600=0.47. The culture was split into pre-warmed flasks, with 50 mL in each of three flasks and 150 mL in a fourth flask. […] The cultures were centrifuged at 2500 g at room temperature for five minutes and the pelle frozen in liquid nitrogen. Total RNA was purified from each culture by hot acidic phenol/chloroform extraction and ethanol precipitation. Poly-A RNA wad purified with a Qiagen Oligotex mRNA Midi Kit (Qiagen; Valencia, Calif.; cat#70042). Fluorescently-labeled probe was prepared from […] poly-A mRNA and applied to glass slides that had been printed with 6240 yeast ORFs (James Hardwick, Jeffrey Tong, and Stuart L. Schreiber, unpublished results). The microarray was scanned with an Array Works scanner and the results were analyzed with Gene Spring software.

[6] = UV spectral shift binding assay with 2; conditions: UV 240-310 nm
Protocol: (§1) UV SPECTRAL SHIFT BINDING ASSAY: A quartz cuvette with 1 mL deionized, distilled water was used as a blank on a Cary 1E UV-visible spectrophotomer. 1a or 2 was diluted to a final concentration of 15 μM or 20 μM, respectively, and the UV spectrum from 240 nm to 320 nm was measured. […] Upon addition of certain transition metals (Table 1), this peak shifted such that the new λmax was 273 nm and 310 nm, for 1a and 2, respectively. […] For the calculation of correlation coefficients, all values less than 7.5 μM were taken to be 7.5 μM, all values greater than 1000 μM were taken to be 1000 μm and all values less than 10 μM were taken to be 10 μM.

[7] = test system: 6F mink lung epithelial cells; experiment: anti-BrdU cytoblot for suppressors of rapamycin; assay type: cell-based
Source text: FIG. 9. […] A 4 mm scale bar is shown. […] A 4 mm scale bar is shown.

BS-C-1 cells = experiment: fluorescence microscopy and live imaging of BS-C-1 cells; assay type: cell-based, monkey; conditions: BS-C-1 cells; 1A at 40 μM for 4 hours
Source text: We investigated the phenotype of mammalian cells (BS-C-I) treated with the compounds of group III. […] Our examination of the distribution of microtubules, actin, and chromatin in fixed cells by fluorescence microscopy allowed us to divide the small molecules into three classes.
We then asked whether the chromosomes surrounding the monoastral microtubule array maintain microtubule attachment.

microtubules [8] = experiment: cold depolymerization of microtubules in cells; assay type: cell-based; conditions: 4° C., 0.5 h, taxol 10 μM, 4 h, synstab A 25 μM
Source text: (§2) Since taxol and discodermolide prevent cold depolymerization of microtubules (Hung et al., Chem. Biol. 3:287, 1996), we tested whether synstab A-treatment of cells would cause a similar effect. […] This mutually exclusive binding is consistent with the observed taxol-like effects of synstab A on cells and on purified microtubules.

TG-3 staining = experiment: fluorescence-activated cell sorting and TG-3 immunoblotting; assay type: cell-based; conditions: concentrations that do not affect viability
microtubules [9] = experiment: competition with fluorescently labeled taxol; assay type: binding; conditions: oregon green labeled taxol, fluorescence polarization
Source text: as §2
Three different assays were used to confirm microtubule-stabilizing effects in the in vitro tubulin polymerization assay by repeating the above experiment. In addition, three independent experiment assessments were carried out. 1) In vitro competition experiments with fluorescence-labeled taxol. […] 2) In vivo incubation of BSCI-cells (a monkey epithelial cell line) with 40 μM 1A for four hours. In brief, BSCI cells were seeded on glass coverslips and cultured overnight. […] 3) treatment of cells with 1A resulted index by the phosphonucleolin (TG-3) cytoblot as described above as measured visually.

[10] = UV spectral shift binding assay with 1a; conditions: UV 240-310 nm
Protocol: as §1

phosphonucleolin = phosphonucleolin cytoblot, suppression of nocodazole-induced mitotic arrest; assay type: cell-based, human; conditions: A549 cells; pretreated 8 hour, then 250 nM nocodazole 12 hours
Protocol: FIG. 10. The ability of anti-proliferative agents such as juglone to suppress the effects of nocodazole-induced mitotic arrest can be detected in a cytoblot. […] (b) A549 human lung carcinoma cells were seeded at a density of 4000 cells in 40 μL of DMEM+ in each well of a white, opaque 384-well plate and incubated overnight at 37° C. with 5% CO2. Cells were either untreated or pretreated with juglone at the indicated concentrations for 8 hour. Subsequently, nocodazole at a final concentration of 250 nM was added to all wells in a final volume of 50 μL and the cells incubated for a further 12 hours. A phosphonucleolin cytoblot was performed. […] A 4 mm scale bar is shown.
The treatment of cells with any small molecule that arrests cells outside of mitosis will suppress the ability of nocodazole to arrest cells in mitosis. […] It was hypothesized that inhibition of Pin1, which is an essential, highly conserved PPIase required for proper mitotic division in Xenopus and yeast, would prevent entry into mitosis and consequently prevent accumulation of phosphonucleolin (FIG. 10a).

Structure (SMILES): O=C(NN=Cc1ccccc1O)c1ccc(O)cc1 [Compound 2, Benzoic acid, 4-hydroxy, [(2-hydroxyphenyl)methylene]hydrazide]
- synergy with metals in reporter activation [1]: synergized strongly with both Cu^+ and Cu^2+ but not with other metals
- synergy with TGFβ [1]: synergistic with TGFβ
- activity in screen (TGFβ-responsive luciferase reporter) ([1]; primary screen of more than 16,000 compounds): showed activity in our screen
- reporter gene expression [1]: dose-dependent increase in reporter gene expression
- activation of NFκB-responsive control reporter [2]: Neither compound activated
- activation of transiently versus stably transfected TGFβ-responsive reporter [3]: less effective
- BrdU incorporation [4]: inhibited BrdU incorporation; also recorded: inhibition of BrdU incorporation
- effect on gene expression in yeast cells [5]: no detectable effect on gene expression in yeast cells
- binding of 2 to metals (shift in UV absorbance maximum) [6]: binds well to Fe^3+, Cu^2+, Cu^+, and CO^2+, and also shows some binding to Ni^2+

Structure (SMILES): CO[C@H]1C[C@@H]2CC[C@@H](C)[C@@](O)(O2)C(=O)C(=O)N2CCCC[C@H]2C(=O)O[C@H]([C@H](C)C[C@@H]2CC[C@@H](O)[C@H](OC)C2)CC(=O)[C@H](C)/C=C(\C)[C@@H](O)[C@@H](OC)C(=O)[C@H](C)C[C@H](C)/C=C/C=C/C=C/1C [rapamycin]
- concentration that prevents BrdU incorporation ([7]; 6F mink lung cells): 20 nM

Structure (SMILES): C=CC[C@@H]1/C=C(\C)C[C@H](C)C[C@H](OC)[C@H]2O[C@@](O)(C(=O)C(=O)N3CCCC[C@H]3C(=O)O[C@H](/C(C)=C/[C@@H]3CC[C@@H](O)[C@H](OC)C3)[C@H](C)[C@@H](O)CC1=O)[C@H](C)C[C@@H]2OC [FK506]
- excess of FK506 that suppresses the antiproliferative effect of rapamycin ([7]; rapamycin and FK506 together 16 hours, then with BrdU 16 hours): 30-100 fold

Structure (SMILES): CC(=O)O[C@H]1C(=O)[C@@]2(C)[C@H]([C@H](OC(=O)c3ccccc3)[C@]3(O)C[C@H](OC(=O)[C@H](O)[C@@H](NC(=O)c4ccccc4)c4ccccc4)C(C)=C1C3(C)C)[C@]1(OC(C)=O)CO[C@@H]1C[C@@H]2O [taxol]
- microtubule, spindle and chromosome phenotype (BS-C-1 cells): less pronounced than that induced by synstab A
- protection from cold depolymerization (microtubules [8]): noticeably stabilized microtubules
- TG-3 reactivity of total cell extracts (TG-3 staining): increased TG-3 reactivity

Structure (SMILES): CN(c1ccc2cccc(O)c2n1)c1ccc2cccc(O)c2n1 [Compound 1a, 2,2′-(methylimino)bis-8(quinolinol)]
- microtubule, spindle and chromosome phenotype (BS-C-1 cells): showed bundling of interphasic microtubules and aberrant mitotic spindles with misaligned chromosomes
- competition for binding of fluorescently labeled taxol (microtubules [9]): compete off bound labeled taxol
- synergy with TGFβ [1]: synergistic with TGFβ
- reporter gene expression [1]: dose-dependent increase in reporter gene expression
- activation of NFκB-responsive control reporter [2]: Neither compound activated
- activation of transiently versus stably transfected TGFβ-responsive reporter [3]: less effective
- BrdU incorporation [4]: inhibited BrdU incorporation; also recorded: inhibition of BrdU incorporation
- […] IN PRESENCE OF COMPOUND […] IN ABSENCE OF COMPOUND ([5]; gene YAL045C (ARN1), Multi-drug resistance pump, repressed genes): 0.49
- […] IN PRESENCE OF COMPOUND […] IN ABSENCE OF COMPOUND ([5]; gene YBL005WA, TyA transposon, activated genes): 2.2
- […] IN PRESENCE OF COMPOUND […] IN ABSENCE OF COMPOUND ([5]; gene YHL040C (ARN1), multidrug resistance pump, activated genes): 2.0
- binding of 1a to metals (shift in UV absorbance maximum) [10]: binds strongly to Zn^2+, Fe^2+, Cu^2+, Cu^+, and Al^3+, and less well to Mn^2+, Co^2+, and Ni^2+

Structure (SMILES): O=C1C=CC(=O)c2c(O)cccc21 [juglone]
- concentrations that prevent accumulation of phosphonucleolin (phosphonucleolin): greater than 25 microM

— patent US20080311589A1, “METHOD OF HIGH-THROUGHPUT SCREENING OF MOLECULES AND COMPOUNDS FOR THEIR EFFECTS ON BIOLOGICAL AND CHEMICAL PROCESSES” (priority 1999, published 2008)
